Source: BindingDB's records for patent US20250313563 (The Broad Institute, 2025)
“And” between values parts separate entries of the source, which are not always exact repeats. Equal values may be shown once.

Experiments:
[1] = target: Glycogen synthase kinase-3 alpha (Homo sapiens, UniProt P49840); experiment: TR-FRET Assay
In short: (§1)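 30 min preinc w/ cpd in assay buffer → kinase rxn → EDTA quench → add detection mix (40 nM SA-d2, 2 nM Tb-pSer641 Ab) → TR-FRET read.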

[2] = target: Glycogen synthase kinase-3 beta (Homo sapiens, UniProt P49841); experiment: TR-FRET Assay
Sequence of Glycogen synthase kinase-3 beta (P49841 whole entry): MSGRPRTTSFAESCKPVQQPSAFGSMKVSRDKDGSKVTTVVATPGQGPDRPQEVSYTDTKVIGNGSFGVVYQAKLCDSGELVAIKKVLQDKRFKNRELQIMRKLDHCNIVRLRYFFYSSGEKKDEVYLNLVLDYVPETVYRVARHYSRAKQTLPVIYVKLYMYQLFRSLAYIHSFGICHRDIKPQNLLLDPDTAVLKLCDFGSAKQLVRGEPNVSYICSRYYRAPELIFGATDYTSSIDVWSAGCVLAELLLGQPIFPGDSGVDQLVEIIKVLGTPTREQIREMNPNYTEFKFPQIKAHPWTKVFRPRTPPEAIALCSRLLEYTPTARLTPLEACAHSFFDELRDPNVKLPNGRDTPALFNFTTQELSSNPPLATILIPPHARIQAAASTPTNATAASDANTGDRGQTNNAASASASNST
In short: as §1

Sequence of Glycogen synthase kinase-3 alpha (P49840 whole entry): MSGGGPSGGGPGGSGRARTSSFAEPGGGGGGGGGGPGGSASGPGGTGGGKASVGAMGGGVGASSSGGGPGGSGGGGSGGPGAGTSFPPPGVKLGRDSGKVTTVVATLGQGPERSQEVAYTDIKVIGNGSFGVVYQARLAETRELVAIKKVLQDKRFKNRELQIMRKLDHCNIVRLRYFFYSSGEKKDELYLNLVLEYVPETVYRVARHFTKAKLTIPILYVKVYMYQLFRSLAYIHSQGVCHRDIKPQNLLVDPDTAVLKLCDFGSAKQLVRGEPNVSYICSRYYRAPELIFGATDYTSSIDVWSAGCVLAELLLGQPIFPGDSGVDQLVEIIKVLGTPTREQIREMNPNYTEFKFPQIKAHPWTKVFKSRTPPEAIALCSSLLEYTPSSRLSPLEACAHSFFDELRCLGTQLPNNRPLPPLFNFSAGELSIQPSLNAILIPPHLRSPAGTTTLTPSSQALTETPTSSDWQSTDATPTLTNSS

Structure (SMILES)	IC50 [1]	IC50 [2]
CC[C@@]1(c2cccc(C(F)(F)F)c2)C2=CN=NC2NC2=C1C(=O)N(c1ccccc1)C2 (some centres not stated) [US20250313563, Compound 945377]	0.1 to 1 µM	1 to 5 µM
CC[C@@]1(c2cccc(-c3c(F)cncc3OC)c2)C2=C(N=NC2)NC2=C1C(=O)C(C)(C)C2 [US20250313563, Compound 952562]	1 to 5 µM	> 5 µM
CC[C@@]1(c2cccc(-c3cnn(Cc4ccc(OC)cc4)c3)c2)C2=CN=NC2NC2=C1C(=O)NC(C)(C)C2 (some centres not stated) [US20250313563, Compound 951838]	0.1 to 1 µM	1 to 5 µM
CC1(C)CC(=O)C2=C(C1)NC1=C(CN=N1)C21CCN(S(=O)(=O)c2c(F)cc(F)cc2F)CC1 [US20250313563, Compound 947484]	< 0.1 µM	< 0.1 µM
CC1(C)CC(=O)C2=C(C1)NC1=C(CN=N1)C21CCN(S(=O)(=O)c2ccc(C(F)(F)F)cn2)CC1 [US20250313563, Compound 947902]	< 0.1 µM	< 0.1 µM
CC1(C)CC(=O)C2=C(C1)NC1=C(CN=N1)C21COC2(CN(C(=O)C3(F)CCC3)C2)C1 (configuration not stated) [US20250313563, Compound 947279]	< 0.1 µM	< 0.1 µM
CC1(C)CC(=O)C2=C(C1)NC1=C(CN=N1)C21CCN(S(=O)(=O)C2CCCCC2)CC1 [US20250313563, Compound 913128]	< 0.1 µM	< 0.1 µM and 0.1 to 1 µM
CC[C@]1(c2cccc(-c3ccncc3CO)c2)C2=CN=NC2NC2=C1C(=O)CC(C)(C)C2 (some centres not stated) [US20250313563, Compound 945469]	< 0.1 µM	< 0.1 µM
CC[C@]1(c2cccc(-c3cc(C)nn3-c3ccccc3)c2)C2=CN=NC2NC2=C1C(=O)NC(C)(C)C2 (some centres not stated) [US20250313563, Compound 951845]	0.1 to 1 µM	0.1 to 1 µM
CC[C@]1(c2ccccc2)C2=CN=NC2NC2=C1C(=O)C(O)C(C)(C)C2 (some centres not stated) [US20250313563, Compound 946056]	0.1 to 1 µM	> 5 µM
CCC1(c2cccc(-c3ccnc4ccccc34)c2)C2=CN=NC2NC2=C1C(=O)CC(C)(C)C2 (configuration not stated) [US20250313563, Compound 932631]	< 0.1 µM	< 0.1 µM
CC1(C)CC(=O)C2=C(C1)NC1=C(CN=N1)[C@]21C[C@@]2(CCN(CC(F)(F)F)C2)C1 [US20250313563, Compound 913138]	0.1 to 1 µM	0.1 to 1 µM
CC[C@@]1(c2cccc(-c3cc(C)nnc3C)c2)C2=CN=NC2NC2=C1C(=O)NC(C)(C)C2 (some centres not stated) [US20250313563, Compound 949331]	< 0.1 µM and 0.1 to 1 µM	0.1 to 1 µM and 1 to 5 µM

Results, then the molecule that gave them:

IC50 [1]	IC50 [2]	Structure (SMILES)
0.1 to 1 µM	> 1.67 µM	CC[C@]1(c2cccc(C(F)(F)F)c2)C2=C(CC(C)(C)CC2=O)NC2N=NC(C)=C21 (some centres not stated) [US20250313563, Compound 810368]
< 0.1 µM	< 0.1 µM	CC[C@]1(c2cccc(C3=CN=NC3)c2)C2=C(CC(C)(C)NC2=O)NC2N=NC(C(F)(F)F)=C21 (some centres not stated) [US20250313563, Compound 948307]
< 0.1 µM	< 0.1 µM	CCC1(c2cccc(-c3c(C)nn(C)c3C)c2)C2=CN=NC2NC2=C1C(=O)CC(C)(C)C2 (configuration not stated) [US20250313563, Compound 883851]
0.1 to 1 µM	0.1 to 1 µM	CC[C@@]1(c2ccc(OC(C)C)cc2)C2=C(CC(C)(C)CC2=O)NC2N=NC(C(F)(F)F)=C21 (some centres not stated) [US20250313563, Compound 947873]
< 0.1 µM	< 0.1 µM	CC[C@@]1(c2cccc(-c3ccnn3C(C)C)c2)C2=CN=NC2NC2=C1C(=O)CC(C)(C)C2 (some centres not stated) [US20250313563, Compound 946091]
< 0.1 µM and 0.1 to 1 µM	< 0.1 µM and 1 to 5 µM	CC[C@]1(c2cccc([C@@H](C)c3ncccn3)c2)C2=CN=NC2NC2=C1C(=O)CC(C)(C)C2 (some centres not stated) [US20250313563, Compound 948058]
< 0.1 µM	< 0.1 µM and 0.1 to 1 µM	CC[C@@]1(c2cccc(C(C)C)c2)C2=C(CC(C)(C)NC2=O)NC2N=NC(C(F)(F)F)=C21 (some centres not stated) [US20250313563, Compound 950494]
1 to 5 µM	> 5 µM	CC[C@@]1(c2cccc(-c3cc(C)ncc3C)c2)C2=CN=NC2NC2=C1C(=O)CC(C)(C)C2 (some centres not stated) [US20250313563, Compound 943515]
